Source: patent US9597342B2 (UWM Research Foundation, Inc., priority 2011, dated 2017)

Columns and labels:
[1] = In vitro metabolic stability using human liver microsomes
Description: The metabolic stability of 15 GABAA receptor ligands using human liver microsomes was studied. The test articles were incubated at two concentrations (1 and 10 μM) and aliquots (100 μl) were removed at various time points (0, 15, 30 and 60 minutes), and analyzed by LC-MS/MS.
(§1) The test articles were incubated at two concentrations (1 and 10 μM) in 96-well plate format with active or heat-inactivated human liver microsomes and cofactors. Aliquots were removed at 0, 15, 30 and 60 minutes and mixed with acetonitrile containing internal standard for analysis. Samples were extracted and assayed using a liquid chromatography/tandem mass spectrometry (LC-MS/MS) analytical method.
Pooled human liver microsomes (Lot #38289, pool of 150 different male and female donor livers) were obtained from BD Biosciences Corporation (Woburn, Mass.). Microsomes were stored at ˜−135° C. until use.
(§2) The test articles (1 and 10 μM) were incubated with human liver microsomes (0.5 mg protein/ml) and appropriate cofactors (2.5 mM NADPH and 3.3 mM magnesium chloride) in 100 mM phosphate buffer, pH 7.4 (0.1% final DMSO), in a 37° C. water bath. Incubations with all compounds were initiated with the addition of microsomes. At selected time points (0, 15, 30 and 60 min), a single 100 μl aliquot was removed from each sample and mixed with 200 μl of chilled acetonitrile containing internal standard. Following brief vortexing and centrifugation, the samples were further diluted into a 96-well plate for subsequent LC-MS/MS analysis. All samples were assayed in duplicate.
(§3) Experimental controls consisted of: a) incubation of all components except test article for 0 and 60 min, b) incubation of midazolam (positive control) at 10 μM for 0, 15, 30 and 60 min, and c) incubation of 1 and 10 μM test article and 10 μM midazolam with heat-inactivated microsomes (0.5 mg protein/ml) for 0 and 60 min. All controls were assayed in duplicate.
Samples were analyzed by LC-MS/MS in multiple reaction monitoring mode using positive-ion electrospray ionization. The details of the LC-MS/MS method can be provided upon request.
(§4) Data from the metabolic stability assays were transferred to and processed in a Microsoft Excel spreadsheet. To determine metabolic stability, the percent remaining at each time point was calculated by dividing the peak area ratio of test article/internal standard at each time point by the peak area ratio at 0 min multiplied by 100.

[2] = Incubation with heat-inactivated human liver microsomes (stability control); conditions: 60 min
Description: as §1, §2, §3, §4

GABAA/α5 receptors = biological target: T1, GABAA/α5 receptors (Homo sapiens, UniProt P18507+P31644); conditions: high affinity; Huang et al., J. Med. Chem. 2000; cited from earlier work
T1 sequence (P31644 32-462): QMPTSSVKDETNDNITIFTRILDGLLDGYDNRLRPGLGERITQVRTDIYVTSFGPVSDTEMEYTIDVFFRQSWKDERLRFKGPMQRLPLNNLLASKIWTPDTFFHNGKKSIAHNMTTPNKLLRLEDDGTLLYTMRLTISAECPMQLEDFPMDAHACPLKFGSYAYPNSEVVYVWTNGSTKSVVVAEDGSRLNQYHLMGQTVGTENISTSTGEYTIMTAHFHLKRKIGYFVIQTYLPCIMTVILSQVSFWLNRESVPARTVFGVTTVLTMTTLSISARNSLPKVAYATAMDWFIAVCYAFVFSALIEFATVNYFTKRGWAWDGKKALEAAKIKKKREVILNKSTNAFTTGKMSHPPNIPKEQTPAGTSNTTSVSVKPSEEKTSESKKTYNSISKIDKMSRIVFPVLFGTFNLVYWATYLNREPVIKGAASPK
T1 sequence (P18507 40-467 limits assumed): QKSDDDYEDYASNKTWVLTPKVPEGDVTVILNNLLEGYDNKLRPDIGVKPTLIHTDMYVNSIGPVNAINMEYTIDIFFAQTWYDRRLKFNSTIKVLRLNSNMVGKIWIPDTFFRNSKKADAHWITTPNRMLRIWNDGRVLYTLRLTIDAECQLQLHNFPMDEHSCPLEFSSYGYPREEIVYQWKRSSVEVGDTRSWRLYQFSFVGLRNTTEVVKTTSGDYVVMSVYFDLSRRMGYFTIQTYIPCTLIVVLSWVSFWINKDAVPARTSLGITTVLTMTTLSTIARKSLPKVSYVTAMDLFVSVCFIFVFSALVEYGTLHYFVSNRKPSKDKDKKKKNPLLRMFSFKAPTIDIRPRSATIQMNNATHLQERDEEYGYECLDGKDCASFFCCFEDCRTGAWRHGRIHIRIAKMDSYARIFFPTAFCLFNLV
T1 sequence (P28472 26-473 partner): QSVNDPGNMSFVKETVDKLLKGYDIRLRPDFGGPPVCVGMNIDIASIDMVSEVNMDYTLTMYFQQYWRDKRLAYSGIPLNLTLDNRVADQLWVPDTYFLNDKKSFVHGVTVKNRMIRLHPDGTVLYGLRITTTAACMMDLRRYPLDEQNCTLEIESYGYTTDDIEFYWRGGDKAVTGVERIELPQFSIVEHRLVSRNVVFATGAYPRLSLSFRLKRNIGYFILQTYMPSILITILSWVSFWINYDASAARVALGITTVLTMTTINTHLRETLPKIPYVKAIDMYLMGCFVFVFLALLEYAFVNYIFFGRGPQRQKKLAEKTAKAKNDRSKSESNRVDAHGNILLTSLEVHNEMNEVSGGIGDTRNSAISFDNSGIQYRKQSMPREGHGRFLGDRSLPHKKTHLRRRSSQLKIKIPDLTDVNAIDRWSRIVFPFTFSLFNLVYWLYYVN

GABAA/α2 = biological target: T2, GABAA/α2 (Homo sapiens, UniProt P18507+P47869); conditions: intermediate affinity; Huang et al., J. Med. Chem. 2000; cited from earlier work
T2 sequence (P47869 29-451): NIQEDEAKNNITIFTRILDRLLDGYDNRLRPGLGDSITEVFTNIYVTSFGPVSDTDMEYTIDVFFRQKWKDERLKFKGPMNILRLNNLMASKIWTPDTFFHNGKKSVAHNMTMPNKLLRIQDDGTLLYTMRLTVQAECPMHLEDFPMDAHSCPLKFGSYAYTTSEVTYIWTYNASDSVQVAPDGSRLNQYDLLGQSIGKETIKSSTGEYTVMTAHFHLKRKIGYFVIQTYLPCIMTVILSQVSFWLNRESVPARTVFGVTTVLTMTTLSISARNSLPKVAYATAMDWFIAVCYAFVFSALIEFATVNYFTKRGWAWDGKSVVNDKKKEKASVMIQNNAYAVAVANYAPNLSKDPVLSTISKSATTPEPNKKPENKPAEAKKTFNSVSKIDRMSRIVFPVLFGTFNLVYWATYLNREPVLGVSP
T2 sequence (P18507 40-467 limits assumed): T1 sequence (P18507 40-467 limits assumed)
T2 sequence (P28472 26-473 partner): T1 sequence (P28472 26-473 partner)

GABAA/α3 = biological target: T3, GABAA/α3 (Homo sapiens, UniProt P18507+P34903); conditions: intermediate affinity; Huang et al., J. Med. Chem. 2000; cited from earlier work
T3 sequence (P34903 29-492): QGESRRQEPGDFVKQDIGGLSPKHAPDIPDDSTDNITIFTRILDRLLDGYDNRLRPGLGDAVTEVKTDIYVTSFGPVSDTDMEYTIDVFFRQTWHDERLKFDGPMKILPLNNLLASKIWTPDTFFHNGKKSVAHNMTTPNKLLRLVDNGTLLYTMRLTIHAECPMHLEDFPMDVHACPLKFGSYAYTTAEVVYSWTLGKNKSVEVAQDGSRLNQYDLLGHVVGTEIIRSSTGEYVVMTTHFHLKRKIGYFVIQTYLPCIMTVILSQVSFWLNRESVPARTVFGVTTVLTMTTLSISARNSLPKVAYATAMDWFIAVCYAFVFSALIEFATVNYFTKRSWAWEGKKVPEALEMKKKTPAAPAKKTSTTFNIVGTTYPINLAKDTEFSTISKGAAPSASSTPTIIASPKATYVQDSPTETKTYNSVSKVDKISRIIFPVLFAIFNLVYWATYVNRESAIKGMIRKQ
T3 sequence (P18507 40-467 limits assumed): T1 sequence (P18507 40-467 limits assumed)
T3 sequence (P28472 26-473 partner): T1 sequence (P28472 26-473 partner)

GABAA/α1 receptors = biological target: T4, GABAA/α1 receptors (Homo sapiens, UniProt P14867+P18507); conditions: poorer affinity; Huang et al., J. Med. Chem. 2000; cited from earlier work
T4 sequence (P14867 28-456): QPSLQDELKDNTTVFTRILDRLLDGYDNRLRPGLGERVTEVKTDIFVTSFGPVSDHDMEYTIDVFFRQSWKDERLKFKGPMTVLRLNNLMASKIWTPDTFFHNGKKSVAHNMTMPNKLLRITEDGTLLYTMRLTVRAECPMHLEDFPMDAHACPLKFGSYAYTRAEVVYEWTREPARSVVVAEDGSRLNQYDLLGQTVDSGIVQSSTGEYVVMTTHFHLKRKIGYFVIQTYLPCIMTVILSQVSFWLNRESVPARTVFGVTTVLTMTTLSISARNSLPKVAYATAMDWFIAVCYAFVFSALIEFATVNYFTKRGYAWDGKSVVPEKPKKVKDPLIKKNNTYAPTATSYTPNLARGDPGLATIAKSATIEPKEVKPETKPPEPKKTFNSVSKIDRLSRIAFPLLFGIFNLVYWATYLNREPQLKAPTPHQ
T4 sequence (P18507 40-467 limits assumed): T1 sequence (P18507 40-467 limits assumed)
T4 sequence (P28472 26-473 partner): T1 sequence (P28472 26-473 partner)

rhesus monkeys = assay: Conflict procedure (anxiolytic and sedating effects) in rhesus monkeys; assay type: in vivo; conditions: i.v., cumulative dosing, data for one monkey (FIG. 14)
Source text: Other methods for evaluating compounds are known to those skilled in the art. For example, an assessment of anxiolytic effects of compounds can be accomplished objectively and quantitatively with operant-based conflict procedures, as described in Fischer et al. Neuropharmacology 59 (2010) 612-618. Briefly, behavior which is positively reinforced can be suppressed in these procedures by response-contingent administration of a noxious stimulus such as mild electric shock. […] The strength of conflict procedures is their predictive validity with respect to expected therapeutic effects in humans. Results from the Fischer et al. indicate that benzodiazepine-like drugs that have pharmacological activity for α2GABAA and/or α3GABAA receptors and low receptor activity at α 1GABAA and α5GABAA receptors may be useful, particularly as non-sedating anxiolytics. […]
Test sessions were conducted once or twice per week when monkeys reached stable performance, defined as the average rates of responding for component 1 and component 2 not varying by ±20% over five consecutive sessions, with no upward or downward trends. […] The dependent measure was the average rates of responding (responses/s), calculated by dividing responses by time during components 1 and 2, excluding responding during time outs or reinforcer delivery.

C#Cc1ccc2c(c1)C(c1ccccc1F)=NCc1c(C(=O)NC)ncn1-2 [HJ-I-037, 8-Ethynyl-N-methyl-6-(2-fluorophenyl)-4H-benzo[f]imidazo[1,5-a][1,4]diazepine-3-carboxamide]
Mean % Remaining vs T = 0 min, Human Liver Microsomes ([1]; 1 μM, 15 min): 97.7% | Mean % Remaining vs T = 0 min, Human Liver Microsomes ([1]; 1 μM, 30 min): 99.5% | Mean % Remaining vs T = 0 min, Human Liver Microsomes ([1]; 1 μM, 60 min): 92.7% | Mean % Remaining vs T = 0 min, Human Liver Microsomes ([1]; 10 μM, 15 min): 96.8% | Mean % Remaining vs T = 0 min, Human Liver Microsomes ([1]; 10 μM, 30 min): 103% | Mean % Remaining vs T = 0 min, Human Liver Microsomes ([1]; 10 μM, 60 min): 103% | Mean % Remaining vs T = 0 min, with HI (Heat Inactivated) Microsomes ([2]; 1 μM): 117% | Mean % Remaining vs T = 0 min, with HI (Heat Inactivated) Microsomes ([2]; 10 μM): 108% | melting point: 235 to 236 °C

C#Cc1ccc2c(c1)C(c1ccccn1)=NCc1c(C(=O)NC)ncn1-2 [HJ-I-40, 8-Ethynyl-N-methyl-6-(pyridine-2-yl)-4H-benzo[f]imidazo[1,5-a][1,4]diazepine-3-carboxamide]
Mean % Remaining vs T = 0 min, Human Liver Microsomes ([1]; 1 μM, 15 min): 109% | Mean % Remaining vs T = 0 min, Human Liver Microsomes ([1]; 1 μM, 30 min): 126% | Mean % Remaining vs T = 0 min, Human Liver Microsomes ([1]; 1 μM, 60 min): 136% | Mean % Remaining vs T = 0 min, Human Liver Microsomes ([1]; 10 μM, 15 min): 104% | Mean % Remaining vs T = 0 min, Human Liver Microsomes ([1]; 10 μM, 30 min): 106% | Mean % Remaining vs T = 0 min, Human Liver Microsomes ([1]; 10 μM, 60 min): 110% | Mean % Remaining vs T = 0 min, with HI (Heat Inactivated) Microsomes ([2]; 1 μM): 110% | Mean % Remaining vs T = 0 min, with HI (Heat Inactivated) Microsomes ([2]; 10 μM): 110% | melting point: 215 to 216 °C

C#Cc1ccc2c(c1)C(c1ccccc1)=NCC(=O)N2C [QH-ii-066]
Ki (GABAA/α5 receptors): < 10 nM | Ki (GABAA/α2): < 50 nM | Ki (GABAA/α3): < 50 nM | Ki (GABAA/α1 receptors): > 70 nM

C#Cc1ccc2c(c1)C(c1ccccc1F)=NCc1c(C(=O)OCCCOC(=O)c3ncn4c3CN=C(c3ccccc3F)c3cc(C#C)ccc3-4)ncn1-2 [YT-III-271, Propane-1,3-Diyl-Bis-(8-Ethynyl-6-(2-Fluorophenyl)-4H-Benzo-[1]-Imidazo-[1,5-a]-[1,4]-Diazepine-3-Carboxylate)]
Mean % Remaining vs T = 0 min, Human Liver Microsomes ([1]; 1 μM, 15 min): 97.1% | Mean % Remaining vs T = 0 min, Human Liver Microsomes ([1]; 1 μM, 30 min): 83.5% | Mean % Remaining vs T = 0 min, Human Liver Microsomes ([1]; 10 μM, 15 min): 104% | Mean % Remaining vs T = 0 min, Human Liver Microsomes ([1]; 10 μM, 30 min): 102% | Mean % Remaining vs T = 0 min, Human Liver Microsomes ([1]; 10 μM, 60 min): 91.1% | Mean % Remaining vs T = 0 min, with HI (Heat Inactivated) Microsomes ([2]; 1 μM): 117% | Mean % Remaining vs T = 0 min, with HI (Heat Inactivated) Microsomes ([2]; 10 μM): 97.0% | anxiolytic effect (suppressed responding) (rhesus monkeys): clearly anxiolytic | sedating effect (non-suppressed responding) (rhesus monkeys): nonsedating
